Data on seven compounds can be found in patent US20250092044A1, “Kinase Inhibitors” (Incyte Corporation, priority 2023, published 2025).

For data set [1], the target named is TRKA (Homo sapiens (Human), UniProt P04629). The data set is described as follows: TRKA Enzymatic Assay. To be noted: 1 mM ATP. It counts as biochemical. The method, boiled down: (§1)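 Reaction contained 0.58 nM TRKA, 1 mM ATP, 500 nM biotinylated TK substrate and 62.5 nM SEB reagent in HEPES 50 mM pH 7.0 with 10 mM MgCl2, 1 mM DTT and 0.1 mM orthovanadate, 0.5% DMSO, ATP-initiated. After 60 min at room temperature, the TR-FRET 665/620 nm ratio was read. IC50 was fitted from percent control activity versus log concentration, with DMSO and no-ATP wells as controls.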

Data set [2] deals with TRKA. Kind of data set: TRKA Enzymatic Assay. In kind it is biochemical. The method, boiled down:
as §1

A short description of the next data set: FaSSIF Solubility Assay. It counts as physicochemical. To be noted: FaSSIF (fasted state simulated intestinal fluid), 25 °C, pH 6.5, fassif, thermodynamic from solid, FaSSIF pH=6.5, 25° C., read-out: Solubility Fassif. The source says:
The FaSSIF (Fasted State Simulated Intestinal Fluid) solubility assay can predict how an oral drug is likely to be dissolved and potentially absorbed in the upper intestine after drinking a glass of water. FaSSIF solubility assay utilizes biorelevant intestinal media (Biorelevant, Part #FFF01) comprised of physiological surfactants, bile salts, and phospholipids that are present in the gastrointestinal fluids it mimics. FaSSIF (pH=6.5) has the average pH of a fasted intestinal fluid with similar osmolarity. The FaSSIF buffer was prepared by adding 20 mL of phosphate buffer to FaSSIF Powder. The buffer was then added to the dry compound of interest at a concentration of 1 mg/mL and then incubated at 25° C. for 24 hours in a Rototherm Plus (Part #H2024). After incubation, the Eppendorf tubes were centrifuged and run on an Agilent 1260 LC-MS. The LC-MS method is a 5 min gradient method of 2% to 95% acetonitrile with water (0.05% TFA) using a Sunfire C18, 5 um 2.1×50 mm (Part #186002539) column. A dry reference compound of interest was diluted to a known 1 mg/mL concentration in 1:1 of water and acetonitrile. Step-wise serial dilutions were performed and run on an Agilent 1260 LC-MS using the same conditions to make a standard curve. The area under the curve is reported for the compound of interest in FaSSIF buffer and the reference standards. Calculations were performed and the predicted solubility, μg/mL, was reported for compounds of the examples.

Data set [3] is described as follows: In Vivo Pharmacokinetics (rat). As to conditions: male, Sprague Dawley, plasma, PO 3.0 mg/kg. Also noted: species or system Sprague Dawley rats. On the procedure: Test compounds were administered to male Sprague Dawley rats or male and female Cynomolgus monkeys intravenously or via oral gavage. For intravenous (IV) dosing, test compounds were dosed at 1 mg/kg using a formulation of 10% dimethylacetamide (DMAC), 10% propylene glycol (PG) in acidified saline via IV bolus for rat or 10 min IV infusion for monkey. For oral (PO) dosing, test compounds were dosed at 3.0 mg/kg using 5% DMAC in 0.5% methylcellulose in citrate buffer (PH˜2.5). Blood samples were collected at predose and various time points up to 24 hours postdose. All blood samples were collected using EDTA as the anticoagulant and centrifuged to obtain plasma samples. The plasma concentrations of test compounds were determined by LC-MS/MS methods. The measured plasma concentrations were used to calculate PK parameters by standard noncompartmental methods using Phoenix® WinNonlin software program (version 8.0, Pharsight Corporation) or similar software. In rats and monkeys, cassette dosing of test compounds were conducted to obtain preliminary PK parameters. In vivo pharmacokinetic experiments with male beagle dogs may be performed under the conditions described above.

In data set [4] the test system is STAT5 (Tyr694) phosphorylation in SET-2 cells. Kind of data set: STAT5 (Tyr694) Phosphorylation Cell Based Assay. As to conditions: Homo sapiens, 2 hours, read-out: SET2 IC50. The method, boiled down: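 SET-2 cells in RPMI with 10% FBS were exposed to compound for 2 h at 37 °C (0.5% DMSO final). After lysis, phospho-STAT5 (Tyr694) was read by HTRF (665/620 ratio) after 24 h antibody incubation at room temperature. IC50 was fitted from percent control activity versus log concentration.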

In brackets after ≈: the same amount, converted by molar mass. Some results are limits rather than exact numbers.

Sequence of TRKA (Homo sapiens (Human), UniProt P04629) (P04629 33-796, species assumed): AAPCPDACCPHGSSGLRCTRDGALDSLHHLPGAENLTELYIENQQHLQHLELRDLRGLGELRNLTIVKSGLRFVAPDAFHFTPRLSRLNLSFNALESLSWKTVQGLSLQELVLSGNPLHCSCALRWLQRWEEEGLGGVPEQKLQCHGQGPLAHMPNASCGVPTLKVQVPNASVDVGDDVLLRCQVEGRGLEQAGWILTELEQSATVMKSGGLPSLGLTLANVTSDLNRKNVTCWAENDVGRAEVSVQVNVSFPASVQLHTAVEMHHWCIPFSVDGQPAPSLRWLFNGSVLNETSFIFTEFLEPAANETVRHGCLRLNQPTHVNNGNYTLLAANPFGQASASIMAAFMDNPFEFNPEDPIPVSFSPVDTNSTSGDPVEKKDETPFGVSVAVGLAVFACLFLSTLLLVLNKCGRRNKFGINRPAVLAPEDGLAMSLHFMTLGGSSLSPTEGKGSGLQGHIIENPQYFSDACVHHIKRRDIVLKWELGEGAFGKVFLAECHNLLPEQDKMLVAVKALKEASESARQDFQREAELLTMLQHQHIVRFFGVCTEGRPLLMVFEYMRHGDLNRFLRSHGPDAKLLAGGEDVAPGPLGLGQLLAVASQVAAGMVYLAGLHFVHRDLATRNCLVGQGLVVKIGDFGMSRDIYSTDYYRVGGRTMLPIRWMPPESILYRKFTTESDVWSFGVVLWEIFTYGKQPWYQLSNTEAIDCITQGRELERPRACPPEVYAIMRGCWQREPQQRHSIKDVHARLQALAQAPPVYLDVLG

As for `[2H]C([2H])([2H])n1ncc2cc(-c3c(-c4cn(C)nc4OC)[nH]c4ncc5c(c34)n(C3CCOCC3)c(=O)n5C)ccc21` [Comparative Example B, reference compound], the IC50 at TRKA [1] is above 2500 nM. The “Selectivity TRKA/JH2 V617F” value with TRKA [2] is given as “** (selectivity of >500-fold to ≤1500-fold)”. Besides, the solubility at 24 h in “FaSSIF Solubility Assay” is at most 50 µg/mL. The AUC in data set [3] is above 1.5 µM·h.

Consider `[2H]C([2H])([2H])N(Cc1ccc(-c2[nH]c3ncc4c(c3c2-c2ccc3c(c2)CC(C)(C)O3)n([C@@H]2CC[C@@H](NC(=O)OC)C2)c(=O)n4C([2H])([2H])[2H])cc1)C([2H])([2H])[2H]` [Example 25, Methyl ((1R,3R)-3-(7-(4-((bis(methyl-d3)amino)methyl)phenyl)-8-(2,2-dimethyl-2,3-dihydrobenzofuran-5-yl)-3-(methyl-d3)-2-oxo-3,6-dihydroimidazo[4,5-d]pyrrolo[2,3-b]pyridin-1(2H)-yl)cyclopentyl)carbamate], for which the values for the IC50 (in data set [4]; against TRKA [1]) were at most 300 nM and 250 to 1250 nM, respectively. Besides, the “Selectivity TRKA/JH2 V617F” value with TRKA [2] is listed as “**** (selectivity of >1750-fold to ≤5000-fold)”. For the same compound, the solubility at 24 h in “FaSSIF Solubility Assay” was 50 to 500 µg/mL (≈ 80.9 to 809 µM). The same compound displayed an AUC in data set [3] of 0.5 to 1.5 µM·h.

Consider `[2H]C([2H])([2H])n1c(=O)n([C@@H]2CC[C@@H](NC(=O)OC)C2)c2c3c(-c4ccc5c(cnn5C(C)C)c4)c(-c4ccc(CN(C)C)cc4)[nH]c3ncc21` [Example 26, Methyl ((1R,3R)-3-(7-(4-((dimethylamino)methyl)phenyl)-8-(1-isopropyl-1H-indazol-5-yl)-3-(methyl-d3)-2-oxo-3,6-dihydroimidazo[4,5-d]pyrrolo[2,3-b]pyridin-1(2H)-yl)cyclopentyl)carbamate], for which the IC50 in data set [4] is at most 300 nM; on TRKA [1], 1250 to 2500 nM. In the data set with TRKA [2], the “Selectivity TRKA/JH2 V617F” value is reported as “***** (selectivity of >5000-fold to ≤12500-fold)”. Moreover, in the data set “FaSSIF Solubility Assay”, the solubility at 24 h is above 500 µg/mL. Also, in data set [3], the AUC was at most 0.5 µM·h.

In the case of `[2H]C([2H])([2H])N(Cc1ccc(-c2[nH]c3ncc4c(c3c2-c2ccc(OCCOC)cc2)n([C@@H]2CC[C@@H](NC(=O)OC)C2)c(=O)n4C([2H])([2H])[2H])cc1)C([2H])([2H])[2H]` [Example 27, Methyl ((1R,3R)-3-(7-(4-((bis(methyl-d3)amino)methyl)phenyl)-8-(4-(2-methoxyethoxy)phenyl)-3-(methyl-d3)-2-oxo-3,6-dihydroimidazo[4,5-d]pyrrolo[2,3-b]pyridin-1(2H)-yl)cyclopentyl)carbamate], the IC50 in data set [4] was at most 300 nM; against TRKA [1] it was 1250 to 2500 nM. In addition, the “Selectivity TRKA/JH2 V617F” value in the data set with TRKA [2] is on record as “***** (selectivity of >5000-fold to ≤12500-fold)”. In addition, the solubility at 24 h in “FaSSIF Solubility Assay” was above 500 µg/mL. Besides, the AUC in data set [3] was 0.5 to 1.5 µM·h.

For `COC(=O)N[C@@H]1CC[C@@H](n2c(=O)n(C)c3cnc4[nH]c(-c5ccc(CN(C)C)cc5)c(-c5ccc(F)cc5)c4c32)C1` [Example 28, Methyl ((1R,3R)-3-(7-(4-((dimethylamino)methyl)phenyl)-8-(4-fluorophenyl)-3-methyl-2-oxo-3,6-dihydroimidazo[4,5-d]pyrrolo[2,3-b]pyridin-1(2H)-yl)cyclopentyl)carbamate], the figures for the IC50 (in data set [4]; on TRKA [1]) were 300 to 800 nM and above 2500 nM, respectively. In addition, in the data set on TRKA [2], the “Selectivity TRKA/JH2 V617F” value is “**** (selectivity of >1750-fold to ≤5000-fold)”. Besides, the solubility at 24 h in “FaSSIF Solubility Assay” is above 500 µg/mL. Further, the AUC in data set [3] lay within 0.5 to 1.5 µM·h.

As for `[2H]C([2H])([2H])N(Cc1ccc(-c2[nH]c3ncc4c(c3c2-c2ccc3c(c2)COC3(C)C)n([C@@H]2CC[C@@H](NC(=O)OC)C2)c(=O)n4C([2H])([2H])[2H])cc1)C([2H])([2H])[2H]` [Example 29, Methyl ((1R,3R)-3-(7-(4-((bis(methyl-d3)amino)methyl)phenyl)-8-(1,1-dimethyl-1,3-dihydroisobenzofuran-5-yl)-3-(methyl-d3)-2-oxo-3,6-dihydroimidazo[4,5-d]pyrrolo[2,3-b]pyridin-1(2H)-yl)cyclopentyl)carbamate], the half-maximal inhibitory concentration (IC50) in data set [4] is at most 300 nM; against TRKA [1], 1250 to 2500 nM. For the same compound, the “Selectivity TRKA/JH2 V617F” value in the data set on TRKA [2] is “****** (selectivity of >12500-fold)”. In “FaSSIF Solubility Assay”, the solubility at 24 h is above 500 µg/mL. The compound also yielded an AUC in data set [3] of at most 0.5 µM·h.

With `[2H]C([2H])([2H])n1c(=O)n([C@@H]2CC[C@@H](NC(=O)OC)C2)c2c3c(-c4ccc5c(c4)COC5(C)C)c(-c4ccc(C(=O)N(C)C)cc4)[nH]c3ncc21` [Example 30, methyl ((1R,3R)-3-(8-(1,1-dimethyl-1,3-dihydroisobenzofuran-5-yl)-7-(4-(dimethylcarbamoyl)phenyl)-3-(methyl-d3)-2-oxo-3,6-dihydroimidazo[4,5-d]pyrrolo[2,3-b]pyridin-1(2H)-yl)cyclopentyl)carbamate], the IC50 in data set [4] was at most 300 nM; on TRKA [1], 250 to 1250 nM. In addition, the “Selectivity TRKA/JH2 V617F” value in the data set with TRKA [2] was “***** (selectivity of >5000-fold to ≤12500-fold)”. The AUC in data set [3] is at most 0.5 µM·h.
